Read-outs that look alike come from different tables or passages of the source. Bridge positions count the residues as written; N and C are the ends. Square brackets hold non-standard residues; d marks the D form. Ends that are not written are not given here. Peptide text beside a SMILES is read from it. * marks the point of attachment. Phe(3,4-Cl2) = N[C@@H](Cc1ccc(Cl)c(Cl)c1)C(=O)O; Phe(3-Me) = Cc1cccc(C[C@H](N)C(=O)O)c1; Cit = NC(=O)NCCC[C@H](N)C(=O)O; PEO24 = monodispersed, 1.2 kDa; Heptanoyl = CCCCCCC(=O)*; Pentanoyl = CCCCC(=O)*
How the values were obtained:
[1] = molecular target: neutral endopeptidase (NEP) (Homo sapiens, UniProt P08473); test: in vitro; conditions: human, pH 7
Protocol: To determine the effects of amino acid substitutions, amino acid extensions, backbone modifications, side chain modifications and PEGylation on the susceptibility of CNP variants to neutral endopeptidase (NEP) cleavage, peptide cleavage assays were carried out using an in vitro assay that monitored disappearance of the non-cleaved CNP variant.
Recombinant human NEP (1 ug/mL final concentration) was added to 100 uM CNP variant diluted in 0.1 M Tris, pH 7. The reaction mixture was incubated at 37° C. for various periods of time, and the reaction was quenched with EDTA (10 mM final) followed by heat denaturation. The reaction mixture was reduced and then the reaction products were analyzed using HPLC and mass spectroscopy. The half-life of the CNP variant was calculated based on the disappearance of intact CNP variant over time.

NPR-B = molecular target: T1, NPR-B (Mus musculus, UniProt Q6VVW5); test: Stimulation of cGMP production in NIH3T3 cells; type: cell-based, Murine; conditions: for cGMP response relative to 1 uM CNP22 (%) at 0.01 µM: read-out: cGMP Response rel. to 1 uM CNP22, 10 nM; for cGMP response relative to 1 uM CNP22 (%) at 1 µM: read-out: cGMP Response rel. to 1 uM CNP22, 1 uM
T1 construct: Murine NIH3T3 cells express endogenously the CNP signaling receptor, NPR-B; endogenous in cells; host or cells: NIH3T3 (murine fibroblasts)
T1 sequence (Q6VVW5 17-1047): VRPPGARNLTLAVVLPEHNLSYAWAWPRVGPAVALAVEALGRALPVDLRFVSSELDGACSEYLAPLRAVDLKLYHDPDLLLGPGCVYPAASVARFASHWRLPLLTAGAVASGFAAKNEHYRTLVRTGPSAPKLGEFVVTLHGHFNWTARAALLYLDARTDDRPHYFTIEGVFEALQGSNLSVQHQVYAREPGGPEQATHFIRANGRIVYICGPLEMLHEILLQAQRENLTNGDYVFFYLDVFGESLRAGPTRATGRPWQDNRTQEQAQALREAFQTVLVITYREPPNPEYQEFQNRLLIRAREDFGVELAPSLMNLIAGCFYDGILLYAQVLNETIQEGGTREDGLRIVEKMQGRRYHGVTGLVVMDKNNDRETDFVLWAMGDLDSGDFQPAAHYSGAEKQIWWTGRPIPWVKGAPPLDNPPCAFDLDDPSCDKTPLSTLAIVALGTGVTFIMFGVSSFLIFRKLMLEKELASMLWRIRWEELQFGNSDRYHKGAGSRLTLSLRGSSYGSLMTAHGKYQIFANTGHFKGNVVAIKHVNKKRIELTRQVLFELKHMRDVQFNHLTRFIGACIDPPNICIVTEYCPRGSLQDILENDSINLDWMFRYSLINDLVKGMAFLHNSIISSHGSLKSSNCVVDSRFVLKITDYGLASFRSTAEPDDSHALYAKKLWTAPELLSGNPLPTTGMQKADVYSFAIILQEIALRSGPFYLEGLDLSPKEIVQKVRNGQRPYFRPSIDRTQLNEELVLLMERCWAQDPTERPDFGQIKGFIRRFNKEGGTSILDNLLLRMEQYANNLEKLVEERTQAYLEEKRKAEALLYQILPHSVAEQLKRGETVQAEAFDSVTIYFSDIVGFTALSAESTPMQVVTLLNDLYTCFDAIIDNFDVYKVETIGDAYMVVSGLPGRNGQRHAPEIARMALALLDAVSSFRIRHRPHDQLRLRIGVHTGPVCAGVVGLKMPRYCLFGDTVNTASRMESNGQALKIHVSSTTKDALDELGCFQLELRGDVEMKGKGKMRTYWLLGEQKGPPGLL

[2] = recombinant human neutral endopeptidase (NEP)
[3] = NIH3T3 cells, 10 nM natriuretic peptide, normalized to cell number and cGMP production with 1 uM wtCNP22
[4] = NIH3T3 cells, 1 uM natriuretic peptide, normalized to cell number and cGMP production with 1 uM wtCNP22

neutral endopeptidase (NEP), sequence (P08473 whole entry): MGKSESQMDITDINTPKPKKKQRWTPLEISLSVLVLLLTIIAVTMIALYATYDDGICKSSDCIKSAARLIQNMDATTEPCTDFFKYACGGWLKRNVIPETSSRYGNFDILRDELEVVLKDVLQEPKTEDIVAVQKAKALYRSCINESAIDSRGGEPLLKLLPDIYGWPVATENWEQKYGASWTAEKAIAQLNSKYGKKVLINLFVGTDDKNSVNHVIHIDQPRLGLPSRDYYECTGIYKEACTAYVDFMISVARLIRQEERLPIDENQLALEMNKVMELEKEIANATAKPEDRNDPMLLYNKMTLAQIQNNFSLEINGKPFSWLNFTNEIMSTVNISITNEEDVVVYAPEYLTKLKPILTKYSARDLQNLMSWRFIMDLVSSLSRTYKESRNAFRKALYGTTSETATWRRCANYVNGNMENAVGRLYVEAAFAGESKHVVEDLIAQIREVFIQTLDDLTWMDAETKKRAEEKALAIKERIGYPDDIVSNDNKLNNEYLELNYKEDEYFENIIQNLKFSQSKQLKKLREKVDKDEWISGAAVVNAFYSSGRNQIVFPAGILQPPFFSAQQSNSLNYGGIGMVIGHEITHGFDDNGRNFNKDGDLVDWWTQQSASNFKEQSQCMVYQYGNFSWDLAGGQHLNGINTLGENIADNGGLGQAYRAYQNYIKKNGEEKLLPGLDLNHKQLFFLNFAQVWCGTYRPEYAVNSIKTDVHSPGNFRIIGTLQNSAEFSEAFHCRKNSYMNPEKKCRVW

CCCCCCC(=O)N[C@@H](CCC(=O)O)C(=O)N[C@@H](CC(C)C)C(=O)N[C@@H](CO)C(=O)N[C@@H](CCC(=O)O)C(=O)NCC(=O)N[C@H]1CSSC[C@@H](C(=O)O)NC(=O)CNC(=O)[C@H](CC(C)C)NC(=O)CNC(=O)[C@H](CO)NC(=O)[C@H](CCSC)NC(=O)[C@H](CO)NC(=O)CNC(=O)[C@H]([C@@H](C)CC)NC(=O)[C@H](CCCNC(=N)N)NC(=O)[C@H](CC(=O)O)NC(=O)[C@H](CC(C)C)NC(=O)[C@H](CCCCN)NC(=O)[C@H](CC(C)C)NC(=O)CNC(=O)[C@H](Cc2ccccc2)NC1=O [AW] (Heptanoyl-ELSEGCFGLKLDRIGSMSGLGC-OH; disulfide 6-22; C-terminus assumed)
half-life at 100 uM [1]: < 0.333 h

CCCCC(=O)N[C@@H](CCC(=O)O)C(=O)N[C@@H](CC(C)C)C(=O)N[C@@H](CO)C(=O)N[C@@H](CCC(=O)O)C(=O)NCC(=O)N[C@H]1CSSC[C@@H](C(=O)O)NC(=O)CNC(=O)[C@H](CC(C)C)NC(=O)CNC(=O)[C@H](CO)NC(=O)[C@H](CCSC)NC(=O)[C@H](CO)NC(=O)CNC(=O)[C@H]([C@@H](C)CC)NC(=O)[C@H](CCCNC(=N)N)NC(=O)[C@H](CC(=O)O)NC(=O)[C@H](CC(C)C)NC(=O)[C@H](CCCCN)NC(=O)[C@H](CC(C)C)NC(=O)CNC(=O)[C@H](Cc2ccccc2)NC1=O [AV] (Pentanoyl-ELSEGCFGLKLDRIGSMSGLGC-OH; disulfide 6-22 (inferred); C-terminus assumed)
half-life at 100 uM [1, 2]: 2 h

CC[C@H](C)[C@@H]1NC(=O)[C@H](CCCNC(=N)N)NC(=O)[C@H](CC(=O)O)NC(=O)[C@H](CC(C)C)NC(=O)[C@H](CCCCN)NC(=O)[C@H](CC(C)C)N(C)C(=O)CNC(=O)[C@H](Cc2ccccc2)NC[C@@H](NC(=O)CNC(=O)[C@H](CCCCN)NC(=O)[C@H](CO)NC(=O)[C@H](CC(C)C)NC(=O)CN)CSSC[C@@H](C(=O)O)NC(=O)CNC(=O)[C@H](CC(C)C)N(C)C(=O)CNC(=O)[C@H](CO)NC(=O)[C@H](CCSC)NC(=O)[C@H](CO)NC(=O)CNC1=O [J]
half-life at 100 uM [1]: 0.833 h

CC[C@H](C)[C@@H]1NC(=O)[C@H](CCCNC(=N)N)NC(=O)[C@H](CC(=O)O)NC(=O)[C@H](CC(C)C)NC(=O)[C@H](CCCCN)NC(=O)[C@H](CC(C)C)NC(=O)CNC(=O)[C@H](Cc2cccc(C)c2)NC(=O)[C@@H](NC(=O)CNC(=O)CNC(=O)[C@H](CO)NC(=O)[C@H](CC(C)C)NC(=O)CN)CSSC[C@@H](C(=O)O)NC(=O)CNC(=O)[C@H](CC(C)C)NC(=O)CNC(=O)[C@H](CO)NC(=O)[C@H](CCSC)NC(=O)[C@H](CO)NC(=O)CNC1=O [X] (H-GLSGGC[Phe(3-Me)]GLKLDRIGSMSGLGC-OH; disulfide 6-22)
half-life at 100 uM [1, 2]: 1.13 h

CC[C@H](C)[C@@H]1NC(=O)[C@H](CCCNC(=N)N)NC(=O)[C@H](CC(=O)O)NC(=O)[C@H](CC(C)C)NC(=O)[C@H](CCCCN)NC(=O)[C@H](CC(C)C)NC(=O)CNC(=O)[C@H](Cc2ccc(Cl)c(Cl)c2)NC(=O)[C@@H](NC(=O)CNC(=O)CNC(=O)[C@H](CO)NC(=O)[C@H](CC(C)C)NC(=O)CN)CSSC[C@@H](C(=O)O)NC(=O)CNC(=O)[C@H](CC(C)C)NC(=O)CNC(=O)[C@H](CO)NC(=O)[C@H](CCSC)NC(=O)[C@H](CO)NC(=O)CNC1=O [V] (H-GLSGGC[Phe(3,4-Cl2)]GLKLDRIGSMSGLGC-OH; disulfide 6-22)
half-life at 100 uM [1, 2]: 1.13 h

CC[C@H](C)[C@@H]1NC(=O)[C@H](CCCNC(=N)N)NC(=O)[C@H](CC(=O)O)NC(=O)[C@H](CC(C)C)NC(=O)[C@H](CCCCN)NC(=O)[C@H](CC(C)C)NC(=O)CNC(=O)[C@H](Cc2ccccc2)NC(=O)[C@@H](NC(=O)CNC(=O)[C@H](CCCCN)NC(=O)[C@H](CO)NC(=O)[C@H](CC(C)C)NC(=O)CNC(=O)[C@H](CCC(N)=O)NC(=O)[C@H](CCC(N)=O)NC(=O)[C@H](CC(N)=O)NC(=O)[C@H](C)NC(=O)CNC(=O)[C@H](Cc2c[nH]cn2)NC(=O)[C@@H](NC(=O)[C@H](CC(=O)O)NC(=O)[C@H](Cc2c[nH]cn2)NC(=O)[C@H](CCC(=O)O)NC(=O)[C@H](Cc2c[nH]cn2)NC(=O)[C@@H]2CCCN2C(=O)[C@H](Cc2c[nH]cn2)NC(=O)[C@H](Cc2c[nH]cn2)NC(=O)[C@H](C)NC(=O)CN)[C@@H](C)O)CSSC[C@@H](C(=O)O)NC(=O)CNC(=O)[C@H](CC(C)C)NC(=O)CNC(=O)[C@H](CO)NC(=O)[C@H](CCSC)NC(=O)[C@H](CO)NC(=O)CNC1=O [CR] (H-GAHHPHEHDTHGANQQGLSKGCFGLKLDRIGSMSGLGC-OH; disulfide 22-38 (inferred); N-terminus and C-terminus assumed)
cGMP response relative to 1 uM CNP22 (%) at 0.01 µM (NPR-B; NIH3T3, […]): 14 ± 5% | cGMP response relative to 1 uM CNP22 (%) at 1 µM (NPR-B; NIH3T3, […]): 77 ± 12%

CC[C@H](C)[C@@H]1NC(=O)[C@H](CCCNC(=N)N)NC(=O)[C@H](CC(=O)O)NC(=O)[C@H](CC(C)C)NC(=O)[C@H](CCCNC(N)=O)NC(=O)[C@H](CC(C)C)NC(=O)CNC(=O)[C@H](Cc2ccccc2)NC(=O)[C@@H](NC(=O)CNC(=O)[C@H](CCCNC(=N)N)NC(=O)[C@H](CO)NC(=O)[C@H](CC(C)C)NC(=O)CN)CSSC[C@@H](C(=O)O)NC(=O)CNC(=O)[C@H](CC(C)C)NC(=O)CNC(=O)[C@H](CO)NC(=O)[C@H](CCSC)NC(=O)[C@H](CO)NC(=O)CNC1=O [BF] (H-GLSRGCFGL[Cit]LDRIGSMSGLGC-OH; disulfide 6-22 (inferred); N-terminus and C-terminus assumed)
cGMP response relative to 1 uM CNP22 (%) at 0.01 µM (NPR-B; [3]): 6% | cGMP response relative to 1 uM CNP22 (%) at 1 µM (NPR-B; [4]): 33%

CC[C@H](C)[C@@H]1NC(=O)[C@H](CCCNC(=N)N)NC(=O)[C@H](CC(=O)O)NC(=O)[C@H](CC(C)C)NC(=O)[C@H](CCCCN)NC(=O)[C@H](CC(C)C)NC(=O)CNC(=O)[C@@H](Cc2ccccc2)NC(=O)[C@@H](NC(=O)CNC(=O)[C@H](CCCCN)NC(=O)[C@H](CO)NC(=O)[C@H](CC(C)C)NC(=O)CN)CSSC[C@@H](C(=O)O)NC(=O)CNC(=O)[C@H](CC(C)C)NC(=O)CNC(=O)[C@H](CO)NC(=O)[C@H](CCSC)NC(=O)[C@H](CO)NC(=O)CNC1=O [E]
cGMP response relative to 1 uM CNP22 (%) at 0.01 µM (NPR-B; NIH3T3, […]): 2% | cGMP response relative to 1 uM CNP22 (%) at 1 µM (NPR-B; NIH3T3, […]): 6%

CC[C@H](C)[C@@H]1NC(=O)[C@H](CCCNC(=N)N)NC(=O)[C@H](CC(=O)O)NC(=O)[C@H](CC(C)C)NC(=O)[C@H](CCCCN)NC(=O)[C@H](CC(C)C)NC(=O)CNC(=O)[C@H](Cc2ccccc2)NC(=O)[C@@H](NC(=O)CNC(=O)[C@H](CCCNC(=N)N)NC(=O)[C@H](CO)NC(=O)[C@H](CC(C)C)NC(=O)CN)CSSC[C@@H](C(=O)O)NC(=O)CNC(=O)[C@H](CC(C)C)NC(=O)CNC(=O)[C@H](CO)NC(=O)[C@H](CCSC)NC(=O)[C@H](CO)NC(=O)[C@H](CCCNC(N)=O)NC1=O [AF] (H-GLSRGCFGLKLDRI[Cit]SMSGLGC-OH; disulfide 6-22 (inferred); N-terminus and C-terminus assumed)
cGMP response relative to 1 uM CNP22 (%) at 0.01 µM (NPR-B; NIH3T3, […]): 1.4% | cGMP response relative to 1 uM CNP22 (%) at 1 µM (NPR-B; NIH3T3, […]): 2%

PEO24-R-CNP22, K4R: R-CNP22, K4R conjugated at the N-terminus to PEO24 (PEO24-RGLSRGCFGLKLDRIGSMSGLGC; disulfide 7-23 (inferred))
cGMP Response rel. to 1 uM CNP22, 10 nM (NPR-B; [3]): 15 ± 2 | cGMP Response rel. to 1 uM CNP22, 1 uM (NPR-B; [4]): 75 ± 12

— patent US8377884B2, “Variants of C-type natriuretic peptides” (Biomarin Pharmaceutical Inc., priority 2007, dated 2013)
